Data from US20110112100A1, “Hepatitis C Virus Inhibitors” (priority 2009, published 2011).
Counter-ions that a name gives are not always drawn. Like-named read-outs stand apart in the source and are kept apart here.

Key:
1a-H77 replicon cells = assay: HCV 1a replicon inhibitory activity (Renilla luciferase); assay type: cell-based, hepatitis C virus; details: Hepatitis C virus, read-out: IC50 value (95% Confidence Intervals) pM Replicon 1A assay
In short: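 Replicon cells in DMEM + 10% FCS incubated 48 hours at 37° C., 5% CO2 with 1-in-3 serial dilutions of compound prepared in DMSO. Replication read as Renilla luciferase luminescence after lysis. EC50 taken from log concentration-response curves.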

1b (con1) replicon cells = assay: HCV 1b replicon inhibitory activity (luciferase, Britelite Plus); assay type: cell-based, hepatitis C virus; details: Hepatitis C virus, read-out: IC50 value (95% Confidence Intervals) pM Replicon 1B assay
In short: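 1b (con1) luciferase replicon cells in DMEM + 10% FCS were exposed to 1-in-3 DMSO compound dilutions for 48 h at 37° C, 5% CO2. Luminescence was read 1-15 min after Britelite Plus addition; EC50 came from log concentration-response curves.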

[1] = Compound induced cytotoxicity in HCV replicon cell lines (WST-1 reagent); assay type: cell-based; details: human, 1b (con1) HCV replicon cells; WST-1, 48 hours; in 1 experiment
Protocol: Test compounds were solubilised to 4 mM in 100% DMSO. Dilutions were made to the desired starting concentration in 100% DMSO and then 1 in 3 dilutions made, again in 100% DMSO. 0.5 μl of each sample was added to 384-well assay plates. White Lumitrac (Greiner) plates were used for the 1a and 1b replicon assays and black, clear bottomed (Greiner) plates were used for the WST-1 cytotoxity assay.
1b (con1) replicon cells were resuspended to a concentration of 1.4×10^5 cells/ml by addition of pre-warmed medium (DMEM+10% FCS). 50 μl of this suspension was added to each well of a 384-well assay plate (Black, clear bottomed, Greiner) already containing 0.5 μl of test compound.
All plates were covered with gas permeable seals and incubated at 37° C., 5% CO2 for 48 hours. After 48 hours, 5 μl WST-1 reagent (Roche, 11 644 807 001) was added to each well and the plate returned to the incubator for 3 hours. After this incubation period absorbance was read at 450 nm on an EnVision (Perkin Elmer) plate reader. The half maximal cytotoxic concentration (CC50) values were calculated for each compound by constructing log concentration-response curves.
All of the exemplified compounds have been screened in a cell proliferation assay (WST-1). A majority have […] in at least 2 independent experiments, the exceptions being the compounds of examples 1, 10, 12, 23, 25, 37, 47, 48, 49, 52, 56, 57, 58, 60, 67, 68, 69, 70, 71, 72, 73, 74, 79, 81 and 84 which have CC50 values>2 μM in 1 experiment, and example 20 where the CC50 is reported as >10 nM (in this instance the top concentration tested in the assay was 10 nM).

[2] = Plasma protein binding, Rapid Equilibrium Dialysis; assay type: in vitro ADME; details: human plasma proteins
Protocol: Plasma binding free fractions (fu) were determined using a proprietary validated Rapid Equilibrium Dialysis (RED) device (Thermofisher). The analyte was spiked to a concentration of 2 μM in pre-prepared male CD rat plasma and 220 μl aliquots (n=4) were loaded into a RED device. The samples were dialysed vs. 350 μl of dulbeccos phosphate buffered saline (dPBS) for 4 h at 37° C. in a CO2 incubator in order to reach equilibrium. After 4 hours, 45 μl buffer and 15 μl plasma aliquots were taken and added to a 200 μl 384-well polypropylene plate. Respective volumes of control buffer were added to the plasma or control plasma was added to the buffer samples to give an identical matrix between samples. The samples were then crashed in 120 μl of acetonitrile and analysed via LC-MS/MS.
For highly bound compounds in the potency assay, which includes 10% foetal calf serum, measured potencies may not reflect real intrinsic potency due to a significant degree of compound binding.

[3] = geometric mean, 95% confidence intervals in parentheses, 48 hours, medium with 10% FCS

| SMILES | IC50 (1a-H77 replicon cells; [3]) [pM] | IC50 (1b (con1) replicon cells; [3]) [pM] | CC50 at 48 h [1] [nM] | fraction unbound at 4 h, 2 µM [2] | IC50 (1a-H77 replicon cells; 48 h) [pM] | IC50 (1b (con1) replicon cells; 48 h) [pM] |
| --- | --- | --- | --- | --- | --- | --- |
| COC(=O)N[C@H](C(=O)N1CCC[C@H]1c1ncc(-c2ccc(-c3ncc4cc(-c5cnc([C@@H]6CCCN6C(=O)[C@@H](NC(=O)OC)C(C)C)[nH]5)ccc4n3)cc2)[nH]1)C(C)C [Example 1] | 36 | 5.89 | > 2000 | 0.0015 | – | – |
| COC(=O)N[C@H](C(=O)N1CCC[C@H]1c1ncc(-c2ccc(-c3ccc4cc(-c5cnc([C@@H]6CCCN6C(=O)[C@@H](NC(=O)OC)C(C)C)[nH]5)ccc4c3)cc2)[nH]1)C(C)C [Example 2, Methyl {(2S)-1-[(2S)-2-{5-[6-(4-{2-[(2S)-1-{(2S)-2-[(methoxycarbonyl)amino]-3-methyl-butanoyl}pyrrolidin-2-yl]-1H-imidazol-4-yl}phenyl)naphthalen-2-yl]-1H-imidazol-2-yl}pyrrolidin-1-yl]-3-methyl-1-oxobutan-2-yl}carbamate] | 22.3 | 2.37 | – | 0.001 | – | – |
| COC(=O)N[C@H](C(=O)N1CCC[C@H]1c1nc(-c2ccc3nc(-c4ccc(-c5cnc([C@@H]6CCCN6C(=O)[C@@H](NC(=O)OC)C(C)C)[nH]5)cc4)ccc3c2)c[nH]1)C(C)C [Example 3, [(S)-1-((S)-2-{4-[2-(4-{2-[(S)-1-((S)-2-Methoxycarbonylamino-3-methyl-butyryl)-pyrrolidin-2-yl]-3H-imidazol-4-yl}-phenyl)-quinolin-6-yl]-1H-imidazol-2-yl}-pyrrolidine-1-carbonyl)-2-methyl-propyl]-carbamic acid methyl ester] | 74.6 | 9.31 | – | < 0.0015 | – | – |
| COC(=O)N[C@@H](CCc1ccccc1)C(=O)N1CCC[C@H]1c1ncc(-c2ccc3nc(-c4ccc(-c5c[nH]c([C@@H]6CCCN6C(=O)[C@@H](NC(=O)OC)C(C)C)n5)cc4)cnc3c2)[nH]1 [Example 79, Methyl {(2S)-1-[(2S)-2-{5-[2-(4-{2-[(2S)-1-{(2S)-2-[(methoxycarbonyl)amino]-3-methylbutanoyl}pyrrolidin-2-yl]-1H-imidazol-4-yl}phenyl)quinoxalin-6-yl]-1H-imidazol-2-yl]pyrrolidin-1-yl]-1-oxo-4-phenylbutan-2-yl}carbamate trifluoroacetic acid salt] | – | – | > 2000 | – | 47.6 | 11.7 |
| COC(=O)N[C@H](C(=O)N1CCC[C@H]1c1nc(-c2ccc(-c3cnc4cc(-c5cnc([C@@H]6CCCN6C(=O)[C@H](NC(=O)OC)c6ccccc6)[nH]5)ccc4n3)cc2)c[nH]1)C(C)C [Example 84, Methyl {(2S)-1-[(2S)-2-{4-[4-(6-{2-[(2S)-1-{(2R)-2-[(methoxycarbonyl)amino]-2-phenylacetyl}pyrrolidin-2-yl]-1H-imidazol-5-yl}quinoxalin-2-yl)phenyl]-1H-imidazol-2-yl}pyrrolidin-1-yl]-3-methyl-1-oxobutan-2-yl}carbamate trifluoroacetic acid salt] | – | – | > 2000 | – | 19 | 10.9 |
